Tests used:
Experiment in all cases: Test C preemergence
Assay type in all cases: in vivo
[1] = tested on: Galium (catchweed bedstraw, Galium aparine); settings: for Plant response rating, Galium: scale 0 to 100, 0 no effect, 100 complete control
How it was run: (§1)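 Greenhouse test: seeds in a loam and sand blend treated preemergence, or seedlings at the 1- to 4-leaf stage (2 to 18 cm) in a peat, vermiculite and limestone mix treated postemergence, with test chemicals in a surfactant-containing non-phytotoxic solvent. Scored by eye at 13 to 15 d relative to controls, 0 (no effect) to 100 (complete control).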

[2] = tested on: barnyardgrass (Echinochloa crus-galli); settings: for Plant response rating, Barnyardgrass: scale 0 to 100, 0 no effect, 100 complete control
How it was run: as §1

[3] = tested on: blackgrass (Alopecurus myosuroides); settings: for Plant response rating, Blackgrass: scale 0 to 100, 0 no effect, 100 complete control
How it was run: as §1

corn (Zea mays) = settings: for Plant response rating, Corn: scale 0 to 100, 0 no effect, 100 complete control
How it was run: as §1

[4] = tested on: crabgrass, large (large crabgrass, Digitaria sanguinalis); settings: for Plant response rating, Crabgrass, Large: scale 0 to 100, 0 no effect, 100 complete control
How it was run: as §1

[5] = tested on: foxtail, giant (giant foxtail, Setaria faberii); settings: for Plant response rating, Foxtail, Giant: scale 0 to 100, 0 no effect, 100 complete control
How it was run: as §1

[6] = tested on: johnsongrass (Sorghum halepense); settings: for Plant response rating, Johnsongrass: scale 0 to 100, 0 no effect, 100 complete control
How it was run: as §1

[7] = tested on: lambsquarters (Chenopodium album); settings: for Plant response rating, Lambsquarters: scale 0 to 100, 0 no effect, 100 complete control
How it was run: as §1

[8] = tested on: morningglory (Ipomoea coccinea); settings: for Plant response rating, Morningglory: scale 0 to 100, 0 no effect, 100 complete control
How it was run: as §1

[9] = tested on: nutsedge, yellow (yellow nutsedge, Cyperus esculentus); settings: for Plant response rating, Nutsedge, Yellow: scale 0 to 100, 0 no effect, 100 complete control
How it was run: as §1

[10] = tested on: oilseed rape (Brassica napus); settings: for Plant response rating, Oilseed Rape: scale 0 to 100, 0 no effect, 100 complete control
How it was run: as §1

[11] = tested on: ragweed (common ragweed, Ambrosia elatior); settings: for Plant response rating, Ragweed: scale 0 to 100, 0 no effect, 100 complete control
How it was run: as §1

[12] = tested on: ryegrass, Italian (Italian ryegrass, Lolium multiflorum); settings: for Plant response rating, Ryegrass, Italian: scale 0 to 100, 0 no effect, 100 complete control
How it was run: as §1

soybean (Glycine max) = settings: for Plant response rating, Soybean: scale 0 to 100, 0 no effect, 100 complete control
How it was run: as §1

[13] = tested on: velvetleaf (Abutilon theophrasti); settings: for Plant response rating, Velvetleaf: scale 0 to 100, 0 no effect, 100 complete control
How it was run: as §1

[14] = tested on: waterhemp (common waterhemp, Amaranthus rudis); settings: for Plant response rating, Waterhemp: scale 0 to 100, 0 no effect, 100 complete control
How it was run: as §1

[15] = tested on: wheat (winter wheat, Triticum aestivum); settings: for Plant response rating, Wheat: scale 0 to 100, 0 no effect, 100 complete control
How it was run: as §1

[16] = 31 g ai/ha, 0 is no effect, 100 is complete control

O=C1NCC(c2cc(F)cc(Cl)c2)C1C(=O)Nc1cccc(F)c1F (centres unmarked) [Compound 492]
95: Plant response rating, Barnyardgrass ([2]; 250 g ai/ha) | Plant response rating, Crabgrass, Large ([4]; 62 g ai/ha) | Plant response rating, Crabgrass, Large ([4]; 125 g ai/ha) | Plant response rating, Crabgrass, Large ([4]; 250 g ai/ha) | Plant response rating, Foxtail, Giant ([5]; 250 g ai/ha)
25: Plant response rating (scale of 0 to 100), Lambsquarters [7, 16] | Plant response rating, Ryegrass, Italian ([12]; 125 g ai/ha)
50: Plant response rating, Lambsquarters ([7]; 250 g ai/ha) | Plant response rating, Oilseed Rape ([10]; 62 g ai/ha) | Plant response rating (scale of 0 to 100), Soybean (soybean (Glycine max); [16])
10: Plant response rating, Blackgrass ([3]; 125 g ai/ha) | Plant response rating, Blackgrass ([3]; 250 g ai/ha) | Plant response rating, Corn (corn (Zea mays); 62 g ai/ha) | Plant response rating, Morningglory ([8]; 62 g ai/ha) | Plant response rating, Ragweed ([11]; 62 g ai/ha) | Plant response rating, Waterhemp ([14]; 62 g ai/ha)
5: Plant response rating, Blackgrass ([3]; 62 g ai/ha) | Plant response rating, Ryegrass, Italian ([12]; 62 g ai/ha) | Plant response rating, Velvetleaf ([13]; 125 g ai/ha) | Plant response rating, Velvetleaf ([13]; 250 g ai/ha) | Plant response rating, Wheat ([15]; 125 g ai/ha)
90: Plant response rating, Barnyardgrass ([2]; 62 g ai/ha) | Plant response rating, Barnyardgrass ([2]; 125 g ai/ha) | Plant response rating (scale of 0 to 100), Crabgrass, Large [4, 16] | Plant response rating (scale of 0 to 100), Foxtail, Giant [5, 16] | Plant response rating, Foxtail, Giant ([5]; 62 g ai/ha) | Plant response rating, Foxtail, Giant ([5]; 125 g ai/ha) | Plant response rating, Johnsongrass ([6]; 250 g ai/ha)
65: Plant response rating, Waterhemp ([14]; 250 g ai/ha)
35: Plant response rating, Lambsquarters ([7]; 62 g ai/ha) | Plant response rating, Ragweed ([11]; 125 g ai/ha) | Plant response rating, Wheat ([15]; 250 g ai/ha)
0: Plant response rating, Galium ([1]; 62 g ai/ha) | Plant response rating, Galium ([1]; 125 g ai/ha) | Plant response rating (scale of 0 to 100), Blackgrass [3, 16] | Plant response rating (scale of 0 to 100), Corn (corn (Zea mays); [16]) | Plant response rating (scale of 0 to 100), Morningglory [8, 16] | Plant response rating (scale of 0 to 100), Nutsedge, Yellow [9, 16] | Plant response rating, Nutsedge, Yellow ([9]; 62 g ai/ha) | Plant response rating, Nutsedge, Yellow ([9]; 125 g ai/ha) | Plant response rating, Nutsedge, Yellow ([9]; 250 g ai/ha) | Plant response rating (scale of 0 to 100), Oilseed Rape [10, 16] | Plant response rating (scale of 0 to 100), Ragweed [11, 16] | Plant response rating (scale of 0 to 100), Ryegrass, Italian [12, 16] | Plant response rating, Soybean (soybean (Glycine max); 62 g ai/ha) | Plant response rating, Soybean (soybean (Glycine max); 250 g ai/ha) | Plant response rating (scale of 0 to 100), Velvetleaf [13, 16] | Plant response rating, Velvetleaf ([13]; 62 g ai/ha) | Plant response rating (scale of 0 to 100), Waterhemp [14, 16] | Plant response rating (scale of 0 to 100), Wheat [15, 16] | Plant response rating, Wheat ([15]; 62 g ai/ha)
45: Plant response rating, Morningglory ([8]; 250 g ai/ha) | Plant response rating, Ragweed ([11]; 250 g ai/ha)
85: Plant response rating (scale of 0 to 100), Galium [1, 16] | Plant response rating, Galium ([1]; 250 g ai/ha) | Plant response rating, Corn (corn (Zea mays); 250 g ai/ha) | Plant response rating, Oilseed Rape ([10]; 125 g ai/ha) | Plant response rating, Oilseed Rape ([10]; 250 g ai/ha)
80: Plant response rating (scale of 0 to 100), Barnyardgrass [2, 16] | Plant response rating, Johnsongrass ([6]; 125 g ai/ha)
40: Plant response rating, Lambsquarters ([7]; 125 g ai/ha) | Plant response rating, Soybean (soybean (Glycine max); 125 g ai/ha) | Plant response rating, Waterhemp ([14]; 125 g ai/ha)
55: Plant response rating, Corn (corn (Zea mays); 125 g ai/ha) | Plant response rating, Johnsongrass ([6]; 62 g ai/ha)
20: Plant response rating (scale of 0 to 100), Johnsongrass [6, 16] | Plant response rating, Morningglory ([8]; 125 g ai/ha) | Plant response rating, Ryegrass, Italian ([12]; 250 g ai/ha)

Reference: patent publication US12077503B2, “Substituted cyclic amides and their use as herbicides” (FMC CORPORATION, priority 2015, dated 2024)
